Test results reported in patent US12233143B2, “Topical compositions containing rose oil and cannabidiol and methods of making and using the same” (priority 2019, dated 2025).
Where “and” joins values, the source holds several entries; their conditions need not be identical. Equal entries are not always repeated.

What was measured:
[1] = test system: PMA-induced IL-8 release by NCTC-2544 keratinocytes; assay: PMA-induced IL-8 release, ELISA; type: cell-based, human; conditions: Dexamethasone 10^−7 M, PMA 0.1 μg/ml
Protocol: (§1) The effect of S-863d and S-863g on inflammation in keratinocytes was evaluated by measuring phorbol myristate acetate (PMA)-induced interleukin-8 (IL-8) and prostaglandin E2 (PGE2) release from a NCTC-2544 keratinocyte cell line by enzyme-linked immunosorbent assay (ELISA).
(§2) Materials: A NCTC-2544 human keratinocyte cell line (NCTC-2544 cells) was cultured at 37° C. in the presence of 5% CO2. The NCTC-2544 cells were grown in Dulbecco's Modified Eagle Medium (DMEM) supplemented with L-glutamine (2 mM), penicillin (50 U/mL), Streptomycin (50 μg/mL), and fetal calf serum (FCS) (10%). S-863d contained 3% phospholipids, 54% glycerin, 10% caprylic/capric triglyceride, 1% cannabidiol, 2% AlpineRoseActive™, 1% glycoin, 0.1% tocopherol, and water (ad 100%). The particle size (zAve) of S-863d was 90±50 nm, and the pH of S-863d was between 4.5 and 7.5. The total germ count of S-863d was <100 CFU/g. S-863d was stored at 4° C. in a dark space in a closed container. S-863g (negative control) contained 1% CBD in DMSO. S-863 d was evaluated at 0.004%, 0.02%, and 0.1%. S-863g was evaluated at 0.00044%, 0.0013%, and 0.004%.
(§3) Methods: The keratinocytes were seeded in 96-well plates and cultured for 24 hours in culture medium. The medium was then replaced by culture medium containing or not (control) the test compounds or the reference compound (dexamethasone at 10′ M for IL-8 assay and indomethacin at 10′ M for PGE2 assay) and the cells were pre-incubated for 24 hours. After pre-incubation, the medium was replaced by culture medium containing or not (control) the test compounds or the reference compounds and the inflammatory inducer phorbol myristate acetate (PMA) at 0.1 μg/mL was added. The cells were further incubated for 24 hours. A control without inducer was performed in parallel (non-stimulated control condition). All experimental conditions were performed in triplicate. IL-8 and PGE2 released in the culture supernatants were measured by ELISA.
(§4) Inhibition of IL-8 and PMA-induced PGE2 release was measured using the following formula: […]

[2] = test system: PMA-induced PGE2 release by NCTC-2544 keratinocytes; assay: PMA-induced PGE2 release, ELISA; type: cell-based, human
Protocol: as §1, §2, §3, §4

[3] = test system: human keratinocyte stem cells (KSC); assay: Migration of keratinocyte stem cells, scratch wound gap recovery; type: cell-based; conditions: 24 hours of incubation
Protocol: The effect of S-863d and S-863g on wound healing in keratinocytes was evaluated. The migration of human keratinocyte stem cells (KSC) was evaluated by measuring wound recovery using imaging on a system whereby a “wound gap” was created by scratching.
Materials: Human keratinocyte cells (KSC) were used at the third passage and cultured at 37° C. in the presence of 5% CO2. The NHEK cells were grown in keratinocyte serum free media supplemented with gentamycin (25 μg/mL), pituitary extract (PE) (25 μg/mL), and epidermal growth factor (EGF) (0.25 ng/ml). S-863d contained 3% phospholipids, 54% glycerin, 10% caprylic/capric triglyceride, 1% cannabidiol, 2% AlpineRoseActive™, 1% glycoin, 0.1% tocopherol, and water (ad 100%). The particle size (zAve) of S-863d was 90±50 nm, and the pH of S-863d was between 4.5 and 7.5. The total germ count of S-863d was <100 CFU/g. S-863d was stored at 4° C. in a dark space in a closed container. S-863g (negative control) contained 1% CBD in DMSO. S-863d was evaluated at 0.004%, 0.02%, and 0.1%. S-863g was evaluated at 0.00044%, 0.0013%, and 0.004%.
Methods: The KSCs were seeded in 24-well plates (previously coated with a collagen I solution) and cultured in culture medium for 24 hours. The medium was then replaced by assay medium and an artificial “wound gap” was generated by scratching the cell monolayers. The KSCs were labeled with calcien-AM. After 30 minutes of incubation (TO), the medium was replaced by assay medium containing or not (control condition) the test compounds or the reference compound (e.g. epidermal growth factor (EGF) at 10 ng/mL) and the cells were further incubated for 24 hours. The labeling with calcein-AM was renewed before the final timepoint. All experimental conditions were performed in triplicate. Cell migration into the migration zone was observed after 0 (TO) and 24 hours of incubation using a high-resolution imaging system INCell Analyzer′ 2200 (GE Healthcare) automated microscope and the artificial wound area was analyzed using ImageJ software. One picture was taken per well (objective lens×4). The artificial wound area was measured after 24 hours of incubation and compared to the area measured at TO in order to visualize and quantify the wound recovery. The effect of compounds on cell migration was compared to the untreated control.
The migration area (percentage of wound recovery) was calculated using the following formula: […]

C[C@@H]1C[C@H]2[C@@H]3CCC4=CC(=O)C=C[C@]4(C)[C@@]3(F)[C@@H](O)C[C@]2(C)[C@@]1(O)C(=O)CO [Dexamethasone, dexamethasone]
IL-8 % Stimulated control [1]: 18%
IL-8 Mean [1]: 22112 pg/mL
IL-8 (pg/ml) dilution factor adjusted ([1]; single replicate): 18117 pg/mL and 23002 pg/mL and 25217 pg/mL
inhibition at 0.1 µM ([1]; Homo sapiens, NCTC-2544, read-out: IL-8 % Relative inhibition): 82%

COc1ccc2c(c1)c(CC(=O)O)c(C)n2C(=O)c1ccc(Cl)cc1 [Indomethacin, indomethacin]
inhibition at 1 µM ([2]; Homo sapiens, NCTC-2544, read-out: PGE2 % Relative inhibition): > 100%
PGE2 Mean ([2]; Indomethacin 10^−6 M, PMA 0.1 μg/ml, non-diluted samples): <39 pg/mL
PGE2 (pg/ml) dilution factor adjusted ([2]; Indomethacin 10^−6 M, PMA 0.1 μg/ml, non-diluted samples, single replicate): <39 pg/mL
PGE2 % Stimulated control ([2]; Indomethacin 10^−6 M, PMA 0.1 μg/ml, extrapolated from values below detection limit): <0%
Effect on PMA-induced PGE2 release (in words) ([2]; NCTC-2544 cells, PMA 0.1 μg/mL): completely inhibited

epidermal growth factor [EGF]
Effect on KSC migration / wound recovery (in words) ([3]; all tested concentrations): marked stimulation
Wound Recovery Mean ([3]; EGF 10 ng/ml): 73%
Wound recovery % Control ([3]; EGF 10 ng/ml): 183 % Control
24 Hours Wound area ([3]; EGF 10 ng/ml, single image): 0.46 mm^2 and 0.50 mm^2 and 0.76 mm^2
Wound Recovery ([3]; EGF 10 ng/ml, single image): 80% and 75% and 64%
